PubChem BioAssay AID1845197 (Molecular Pharmacology Branch, DTP, NCI, 2023)
pIC50: −log10 of the molar value. Several values for one entry are separate records, joined by “and”; a condition that tells them apart may be missing. Equal entries are not always repeated.

System: 349418-098-R tumor spheroid viability
Test: Anticancer human tumor 349418-098-R patient-derived lung adenocarcinoma cell line growth inhibition
Details: spheroids with HUVEC and MSC; for viability, T/C: stronger effect = lower value
Method in brief: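 Complex spheroids of malignant cells with endothelial cells and mesenchymal stem cells; agents alone or combined, from near clinical Cmax (or 10 microM if unknown) down in half-log steps, 0.25% DMSO final.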

[1] = compound alone, run of 10/17/2019
[2] = compound alone, run of 10/25/2019
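Further: spheroids exposed to compound for 7 days before measurement.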
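Wherever viability, T/C is given: percent of vehicle control viability with 100% = DMSO-treated spheroids.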

CC(C)n1c(=O)n(C)c2cnc3cc(F)c(-c4ccc(OCCCN5CCCCC5)nc4)cc3c21 + Cn1nnc2c(C(N)=O)ncn2c1=O
pIC50 (curve of first compound, second compound 1 µM): 5.01 | pIC50 (curve of first compound, second compound 3.16 µM): 5.05 | pIC50 (curve of first compound, second compound 10 µM): 5.03 | pIC50 (curve of first compound, second compound 31.6 µM): 5.05 | pIC50 (curve of first compound, second compound 100 µM): 5.07 | viability, T/C (second compound 1 µM, first compound 0.0316 µM): 104% | viability, T/C (second compound 1 µM, first compound 0.1 µM): 99.5% | viability, T/C (second compound 1 µM, first compound 0.316 µM): 101% | viability, T/C (second compound 1 µM, first compound 1 µM): 101% | viability, T/C (second compound 1 µM, first compound 3.16 µM): 103% | viability, T/C (second compound 1 µM, first compound 10 µM): 48.8% | viability, T/C (second compound 3.16 µM, first compound 0.0316 µM): 102% | viability, T/C (second compound 3.16 µM, first compound 0.1 µM): 105% | viability, T/C (second compound 3.16 µM, first compound 0.316 µM): 103% | viability, T/C (second compound 3.16 µM, first compound 1 µM): 103% | viability, T/C (second compound 3.16 µM, first compound 3.16 µM): 102% | viability, T/C (second compound 3.16 µM, first compound 10 µM): 44.7% | viability, T/C (second compound 10 µM, first compound 0.0316 µM): 98.6% | viability, T/C (second compound 10 µM, first compound 0.1 µM): 103% | viability, T/C (second compound 10 µM, first compound 0.316 µM): 99.6% | viability, T/C (second compound 10 µM, first compound 1 µM): 103% | viability, T/C (second compound 10 µM, first compound 3.16 µM): 104% | viability, T/C (second compound 10 µM, first compound 10 µM): 46.3% | viability, T/C (second compound 31.6 µM, first compound 0.0316 µM): 102% | viability, T/C (second compound 31.6 µM, first compound 0.1 µM): 106% | viability, T/C (second compound 31.6 µM, first compound 0.316 µM): 98.4% | viability, T/C (second compound 31.6 µM, first compound 1 µM): 105% | viability, T/C (second compound 31.6 µM, first compound 3.16 µM): 105% | viability, T/C (second compound 31.6 µM, first compound 10 µM): 43.9% | viability, T/C (second compound 100 µM, first compound 0.0316 µM): 103% | viability, T/C (second compound 100 µM, first compound 0.1 µM): 107% | viability, T/C (second compound 100 µM, first compound 0.316 µM): 105% | viability, T/C (second compound 100 µM, first compound 1 µM): 102% | viability, T/C (second compound 100 µM, first compound 3.16 µM): 102% | viability, T/C (second compound 100 µM, first compound 10 µM): 41.3%

Cn1nnc2c(C(N)=O)ncn2c1=O
viability, T/C (compound 1 µM): 101% [middle of 10 runs] | viability, T/C (compound 3.16 µM): 101% [middle of 10 runs] | viability, T/C (compound 10 µM): 100% [middle of 10 runs] | viability, T/C (compound 31.6 µM): 102% [middle of 10 runs] | viability, T/C (compound 100 µM): 103% [middle of 10 runs] | pIC50 [1]: < 4.00

CC[C@@]1(O)C(=O)OCc2c1cc1n(c2=O)Cc2cc3c(CN(C)C)c(O)ccc3nc2-1
viability, T/C (compound 0.003 µM): 99.8% [middle of 10 runs] | viability, T/C (compound 0.00949 µM): 97.5% [middle of 10 runs] | viability, T/C (compound 0.03 µM): 77.6% [middle of 10 runs] | viability, T/C (compound 0.0949 µM): 19.6% [middle of 10 runs] | viability, T/C (compound 0.3 µM): 4.75% [middle of 10 runs] | IC50 [1]: 58.3 nM [middle of 5 runs] | IC50 [2]: 43.3 nM [middle of 5 runs]

Cc1sc2c(c1C)C(c1ccc(Cl)cc1)=NC(CC(=O)Nc1ccc(O)cc1)c1nnc(C)n1-2 (stereo not given) + COc1cc2c(cc1O)CCNC21CSC2c3c(OC(C)=O)c(C)c4c(c3C(COC1=O)N1C(O)C3Cc5cc(C)c(OC)c(O)c5C(C21)N3C)OCO4
pIC50 (curve of first compound, second compound 30 pM): 6.85 | pIC50 (curve of first compound, second compound 94.9 pM): 6.98 | pIC50 (curve of first compound, second compound 0.0003 µM): 7.41 | pIC50 (curve of first compound, second compound 0.000949 µM): > 8.02 | pIC50 (curve of first compound, second compound 0.003 µM): > 8.02 | viability, T/C (second compound 30 pM, first compound 0.00949 µM): 97.4% | viability, T/C (second compound 30 pM, first compound 0.03 µM): 101% | viability, T/C (second compound 30 pM, first compound 0.0949 µM): 63.3% | viability, T/C (second compound 30 pM, first compound 0.3 µM): 22.3% | viability, T/C (second compound 30 pM, first compound 0.949 µM): 3.92% | viability, T/C (second compound 30 pM, first compound 3 µM): 0.75% | viability, T/C (second compound 94.9 pM, first compound 0.00949 µM): 99.1% | viability, T/C (second compound 94.9 pM, first compound 0.03 µM): 104% | viability, T/C (second compound 94.9 pM, first compound 0.0949 µM): 53.6% | viability, T/C (second compound 94.9 pM, first compound 0.3 µM): 7.33% | viability, T/C (second compound 94.9 pM, first compound 0.949 µM): 1.23% | viability, T/C (second compound 94.9 pM, first compound 3 µM): 0.57% | viability, T/C (second compound 0.0003 µM, first compound 0.00949 µM): 87.3% | viability, T/C (second compound 0.0003 µM, first compound 0.03 µM): 56% | viability, T/C (second compound 0.0003 µM, first compound 0.0949 µM): 28.3% | viability, T/C (second compound 0.0003 µM, first compound 0.3 µM): 4.02% | viability, T/C (second compound 0.0003 µM, first compound 0.949 µM): 0.43% | viability, T/C (second compound 0.0003 µM, first compound 3 µM): 0.38% | viability, T/C (second compound 0.000949 µM, first compound 0.00949 µM): 0.25% | viability, T/C (second compound 0.000949 µM, first compound 0.03 µM): 0.35% | viability, T/C (second compound 0.000949 µM, first compound 0.0949 µM): 0.19% | viability, T/C (second compound 0.000949 µM, first compound 0.3 µM): 0.18% | viability, T/C (second compound 0.000949 µM, first compound 0.949 µM): 0.18% | viability, T/C (second compound 0.000949 µM, first compound 3 µM): 0.57% | viability, T/C (second compound 0.003 µM, first compound 0.00949 µM): 1.49% | viability, T/C (second compound 0.003 µM, first compound 0.03 µM): 1.62% | viability, T/C (second compound 0.003 µM, first compound 0.0949 µM): 1.47% | viability, T/C (second compound 0.003 µM, first compound 0.3 µM): 1.59% | viability, T/C (second compound 0.003 µM, first compound 0.949 µM): 2.52% | viability, T/C (second compound 0.003 µM, first compound 3 µM): 3.49%

CC1COCCN1c1cc(-c2ccnn2C)c2ccnc(-c3ccn[nH]3)c2n1 (stereo not given)
viability, T/C (compound 0.0316 µM): 90.1% and 88.7% and 108% | viability, T/C (compound 0.1 µM): 48.2% and 41.8% and 114% | viability, T/C (compound 0.316 µM): 14.5% and 13% and 23.9% | viability, T/C (compound 1 µM): 11.7% and 10.5% and 18.3% | viability, T/C (compound 3.16 µM): 12.6% and 11.9% and 16.4% | viability, T/C (compound 10 µM): 11.6% (2×) and 11.7% | pIC50 (curve of compound): 7.02 and 7.09 and 6.65

COc1cc2c(cc1O)CCNC21CSC2c3c(OC(C)=O)c(C)c4c(c3C(COC1=O)N1C(O)C3Cc5cc(C)c(OC)c(O)c5C(C21)N3C)OCO4 (stereo not given)
viability, T/C (compound 94.9 pM): 90.5% [middle of 10 runs] | viability, T/C (compound 0.0003 µM): 88.1% [middle of 10 runs] | viability, T/C (compound 0.000949 µM): 0.55% [middle of 10 runs] | viability, T/C (compound 0.003 µM): 1.4% [middle of 9 runs] | IC50 [2]: 0.496 nM [middle of 9 runs]
